Results: article PMC7188855, “Nucleic acid recognition and antiviral activity of 1,4-substituted terphenyl compounds mimicking all faces of the HIV-1 Rev protein positively-charged α-helix” (Scientific Reports, 2020)
pEC50, pIC50, pKd: −log10 of the molar value.

Legend:
[1] = tested on: full length proviral HIV-1 (NL4.3-luc); test: Transfection of full-length proviral HIV-1 (NL4.3-luc) in MT-2 cells; assay type: cell-based; conditions: Human immunodeficiency virus 1, MT2, 48 h, read-out: EC50 transfection HIV-1
high-order RRE-Rev = test: EMSA of full-length RRE-Rev ribonucleoprotein formation; assay type: binding, HIV-1; conditions: 78 nM RRE, 1.32 μM Rev, 300 mM KCl, 1 mM MgCl2, band of high-order complexes
Text: After the high-affinity interaction between RRE subdomain IIB and the Rev34–50 helix of the first Rev monomer is established, the RRE-Rev ribonucleoprotein is formed by the incorporation of additional Rev units binding to further sites in the RRE (Fig. 3B, right)[9],[10],[13]. Using an electrophoretic mobility shift assay (EMSA) involving full-length RRE and Rev, we also evaluated whether 1,4-terphenyl compounds were capable of interfering with the formation of the ribonucleoprotein. […] The effect was particularly prominent for high-order complexes (containing a greater number of Rev monomers), but the inhibition of low-order complexes by 1d was also detected at concentrations consistent with the IC50 value measured in the IIB-Rev34–50 displacement experiment. Compounds 1b and 3c exerted a weaker effect on the RRE-Rev complex, in agreement with the results obtained in the displacement experiments monitored by fluorescence anisotropy (Fig. 3B and Table 1).
The experiments monitoring RRE-Rev inhibition utilized 78 nM full-length RRE and 1.32 μM full-length Rev dissolved in 10 mM HEPES pH 7.5, 300 mM KCl, 1 mM MgCl2 and 0.5 mM EDTA binding buffer, and increasing concentrations of each compound up to 50 μM[21],[39]. The reactions were incubated at room temperature for 20 minutes and loaded onto 8% polyacrylamide gels with TB running buffer. Gels were run at 4 °C for 1–4 hours at 150 V, and the bands were stained with SYBR gold and quantified with Quantity One 4.1 analysis software. Experiments monitoring binding to the 58-base pair HIV-1 LTRc core segment utilized 20 nM LTRc duplex dissolved in the same binding buffer, and increasing concentrations of each compound. The reactions were similarly incubated and loaded onto 20% polyacrylamide gels with TB running buffer. The gels were run at 4 °C for 3.5 hours at 150 V, and the bands were stained and quantified as described above. The specificity of LTRc association was evaluated by duplicating the experiments in the presence of a 100-fold molar excess of DNAd duplex (28-fold base-pair molar excess). In all cases, we monitored the disappearance of the band corresponding to high-order RRE-Rev complexes or free LTRc, and 50% response RC50 values were determined with Prism by fitting the data to a sigmoidal inhibitory model: I−Imin=ImaxC/1+C/RC50 where I is the intensity of the band corresponding to LTRc or high-order RRE-Rev species at compound concentration C, Imax the best-fit value for maximum intensity, and Imin the minimum intensity obtained at the highest concentration of inhibitor. All EMSA experiments were repeated three times for each compound.

[2] = target: RRE subdomain IIB-Rev34–50; test: Fluorescence anisotropy displacement of the IIBh-Rev34–50 interaction; conditions: read-out: IC50, RRE subdomain IIB-Rev34–50, 60 nM IIBh, 10 nM frevp, 100 mM KCl, 20 mM NaCl, 2 mM MgCl2
Experimental: These experiments were conducted in a Victor X5 (PerkinElmer) plate reader as described before[7],[21], using 10 nM frevp and 60 nM IIBh. […] Each fluorescence anisotropy experiment was repeated at least two times.

[3] = tested on: HIV-1 reverse transcription; test: qPCR quantification of early and late HIV-1 reverse transcripts in MT-2 cells; assay type: cell-based; conditions: MT-2 cells infected with NL4.3 for 5 hours
Experimental: MT-2 cells were pre-treated with two different concentrations of terphenyl molecules 1a, 1d or 3c, selected on the basis of the observed RRE-Rev IC50 and cellular EC50 values, and infected with NL4.3 wild-type HIV-1 for 5 hours. Total genomic DNA was isolated with a QIAamp DNA blood mini kit (Qiagen) and quantified by spectrophotometry. Early and late viral DNAs were quantified by qPCR as previously described. qPCR was performed in triplicate in a StepOne Real-Time PCR system using standard cycling conditions. Serial dilutions of genomic DNA from the 8E5 cell line, which contain a single integrated copy of HIV-1[43], were used as standard curve. The CCR5 gene was used as an endogenous control.

RRE subdomain IIB (IIBh) = test: Isothermal titration calorimetry with IIBh; assay type: binding, HIV-1; conditions: 25 °C; 10 mM sodium phosphate pH 7.4, 0.1 mM EDTA; read-out: equilibrium dissociation constant, RRE subdomain IIB (ITC)
Experimental: (§1) These experiments were performed at 25 °C in MicroCal PEAQ-ITC or Nano-ITC microcalorimeters, and the data was subsequently analysed with MicroCal or Nanoanalyze software, respectively. All species were dissolved in aqueous solutions containing 10 mM sodium phosphate (pH 7.4 or 8.2) and 0.1 mM EDTA. For the IIBh:1a interaction the pH was 7.4, and 10 or 20 μM solutions of IIBh in the sample cell were titrated with 19 injections of 350 or 500 μM solutions of 1a. […]. […] For the DNAd:1a interaction, the pH was 8.2, and 800 or 900 μM solutions of 1a were titrated into 20 μM solutions of DNAd duplex in the sample cell with 19 injections of 2 µL. In both cases, the titration experiments were repeated three times, and the resulting association curves were fitted using a model with a single set of binding sites.

DNA duplex DNAd = test: Isothermal titration calorimetry with DNAd duplex; assay type: binding; conditions: 25 °C, 10 mM sodium phosphate pH 8.2, 0.1 mM EDTA, read-out: equilibrium dissociation constant, related DNA duplex (ITC)
Experimental: as §1

[4] = tested on: RRE-Rev system (unspliced, single-spliced, multiple-spliced HIV-1 transcripts); test: RT-qPCR analysis of HIV-1 RNA splicing in MT-2 cells; assay type: cell-based; conditions: 24 and 48 hours post-infection, 100 μM; not statistically significant
Experimental: Given that splicing takes place in the nucleus, a blockage of the RRE-Rev system should reduce the levels of unspliced or single-spliced transcripts and increase the proportion of multiple-spliced species.
MT-2 cells were infected with a NL4.3 virus for 2 hours (10 ng/10^6 cells) and treated with two different concentrations of compounds 1a, 1d or 3c for 24, 48, 72 or 96 hours. The compound concentrations were chosen on the basis of the observed RRE-Rev IC50 and cellular EC50 values. Total cellular RNA was isolated, treated with DNase I and reverse-transcribed as previously described[21],[22]. Unspliced, single-spliced and multiple-spliced HIV-1 RNA transcripts were quantified by qPCR relative to a control obtained from untreated cells, using the primers described by Mohammadi et al.[48], and GAPDH as an endogenous control.

`Cc1cc(-c2cc(CCN)ccc2CCN)c(C)cc1-c1cccc(CCN)c1` [Compound 3c] was tested, and the pEC50 [1] was 4.81, the pIC50 (high-order RRE-Rev) was under 4.30 and the pIC50 [2] was under 4.00. The “diminished levels of early viral DNA sequences” value [3] was 25%.
`COc1cc(CCN)c(-c2cc(C)c(-c3cc(CCN)c(OC)cc3CCN)cc2C)cc1CCN` [Compound 1a] gave a pKd (RRE subdomain IIB (IIBh)) of 6.30, a pEC50 [1] of 4.91 and a pKd (DNA duplex DNAd) of 5.20. For the same compound, the pIC50 (high-order RRE-Rev) was 5.17, the pIC50 [2] was 4.85 and the “diminished levels of early viral DNA sequences” value [3] was 25%.
`Cc1cc(-c2cc(CCN)ccc2CCN)c(C)cc1-c1cc(CCN)ccc1CCN` [Compound 1d] was tested, and the pEC50 [1] was 5.22, the pIC50 (high-order RRE-Rev) was 5.52 and the pIC50 [2] was 4.33. The “pattern of unspliced, single-spliced and multiple-spliced viral transcripts” value [4] was “clearest patterns consistent with RRE-Rev inhibition”.
